By pIC50 is commonly meant the negative decadic logarithm of the IC50, by convention in mol/L. A higher pIC50 goes with a small IC50. In general, pEC50 refers to the negative decadic logarithm of the EC50, by convention in mol/L.

The test system of assay [1] is CCL17 secretion in peripheral human whole blood. Nature of the assay: Human Whole Blood (HWB) CCL17 TR-FRET Assay (IL-13 stimulated CCL17 secretion). In kind it is cell-based. In a few lines: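 Heparinized peripheral human whole blood was preincubated with compound (11-point, 3-fold series, duplicate) for 2 h at 37 °C, then stimulated with IL-13 at 10 ng/mL final for 48 h at 37 °C. Secreted CCL17 in the serum was quantified by TR-FRET sandwich immunoassay (665/615 nm ratio, 16 h RT); IC50 derived.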

Assay [2] deals with T1, STAT6 (Homo sapiens, UniProt P42226).
T1 construct: stably transfected HaCaT keratinocyte cell line, which expresses NanoLuc luciferase reporter gene under the transcriptional control of the STAT6 responsive promoter; endogenous in cells; host or cells: HaCaT keratinocyte reporter cell line (stably transfected with a NanoLuc reporter)
T1 sequence (P42226 1-847): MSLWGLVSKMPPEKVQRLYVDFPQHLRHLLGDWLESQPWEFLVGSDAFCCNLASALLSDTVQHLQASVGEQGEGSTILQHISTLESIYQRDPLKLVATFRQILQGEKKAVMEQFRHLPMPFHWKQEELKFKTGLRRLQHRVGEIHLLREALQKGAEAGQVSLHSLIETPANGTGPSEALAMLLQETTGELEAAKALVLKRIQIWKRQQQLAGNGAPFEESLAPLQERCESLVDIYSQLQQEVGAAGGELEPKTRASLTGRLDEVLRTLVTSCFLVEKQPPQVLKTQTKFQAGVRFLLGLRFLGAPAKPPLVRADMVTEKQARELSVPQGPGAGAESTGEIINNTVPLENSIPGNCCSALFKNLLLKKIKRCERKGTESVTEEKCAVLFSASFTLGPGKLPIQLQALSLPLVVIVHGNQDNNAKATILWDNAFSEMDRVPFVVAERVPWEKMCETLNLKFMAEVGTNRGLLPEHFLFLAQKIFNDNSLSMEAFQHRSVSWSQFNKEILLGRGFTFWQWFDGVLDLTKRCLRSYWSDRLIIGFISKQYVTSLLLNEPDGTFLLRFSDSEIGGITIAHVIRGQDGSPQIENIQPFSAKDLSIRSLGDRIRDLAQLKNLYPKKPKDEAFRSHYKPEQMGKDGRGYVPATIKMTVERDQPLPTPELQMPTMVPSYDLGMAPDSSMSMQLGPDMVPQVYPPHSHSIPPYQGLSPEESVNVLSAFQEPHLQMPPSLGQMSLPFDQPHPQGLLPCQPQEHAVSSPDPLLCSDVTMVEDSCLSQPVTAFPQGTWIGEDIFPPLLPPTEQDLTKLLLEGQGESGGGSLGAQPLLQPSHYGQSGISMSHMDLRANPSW
The experiment in a line: STAT6 Reporter Luciferase Assay (IL-13 stimulated HaCaT keratinocyte NanoLuc reporter cells). The settings on record: read-out: Reporter EC50. In kind it is cell-based. In a few lines:
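Cells were plated overnight, washed, exposed to compound for two hours, stimulated with IL-13 (0.12 nM final) for four hours at 37 °C, and then lysed with Nano-Glo substrate for 15 min before luminescence reading.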

Where [3] appears, read: Homo sapiens, 48 h, inhibition of CCL17 secretion in human whole blood, 10 ng/mL IL13, 48 hours.
Where [4] appears, read: STAT6 NanoLuc luciferase reporter, IL-13 stimulated HaCaT keratinocyte cells.
[5] abbreviates: Homo sapiens, 48 h, human whole blood, IL-13 stimulated.
Setting [6] is: IL-13 stimulated HaCaT STAT6 NanoLuc reporter cells.
Setting [7] is: human whole blood, IL-13 stimulated, 48 hours.

Molecules are shown by their SMILES. pEC50, pIC50: −log10 of the molar value. Read-outs that look alike come from different tables or passages of the source.

`CCC1CN(c2ccc(C(=O)N(C)C)cn2)Cc2c(C(=O)NCc3ccc(NC(=O)N(C)C)cc3)nn(C)c21` (racemic) [Example 77, rac-(R)-5-(5-(Dimethylcarbamoyl)pyridin-2-yl)-N-(4-(3,3-dimethylureido)benzyl)-7-ethyl-1-methyl-4,5,6,7-tetrahydro-1H-pyrazolo[4,3-c]pyridine-3-carboxamide] gave a pIC50 in assay [1] (setting [3]) of 7.35. Further, the pEC50 in assay [2] (setting [4]) is 8.40.
The compound `CN(C)C(=O)Nc1ccc(CNC(=O)c2nc(C(F)(F)F)n3c2CN(c2ccc(C(=O)N(C)C)cn2)CC3)cc1` [Example 22, 7-(5-(dimethylcarbamoyl)pyridin-2-yl)-N-(4-(3,3-dimethylureido)benzyl)-3-(trifluoromethyl)-5,6,7,8-tetrahydroimidazo[1,5-a]pyrazine-1-carboxamide] gave a pIC50 in assay [1] (setting [3]) of 7.27. Besides, in assay [2] (setting [4]), the pEC50 is 7.68.
`CC(C)n1nc(C(=O)NCc2ccc(NC(=O)N(C)C)cc2)c2c1CCN(c1ccc(C3CCCCO3)cn1)C2` (single isomer, unassigned) [Example 393, rel-(R or S)-N-(4-(3,3-dimethylureido)benzyl)-1-isopropyl-5-(5-(tetrahydro-2H-pyran-2-yl)pyridin-2-yl)-4,5,6,7-tetrahydro-1H-pyrazolo[4,3-c]pyridine-3-carboxamide] had a pIC50 in assay [1] (setting [5]) of less than 4.52. Also, the pEC50 in assay [2] (setting [6]) is less than 5.06.
Regarding `CCc1nc(C(=O)NCc2ccc(NC(=O)N(C)C)cc2)c2n1C(C)CN(c1ccc(C(=O)N(C)C)cc1)C2` (single isomer, unassigned) [Example 428, rel-(R or S)-7-(4-(dimethylcarbamoyl)phenyl)-N-(4-(3,3-dimethylureido)benzyl)-3-ethyl-5-methyl-5,6,7,8-tetrahydroimidazo[1,5-a]pyrazine-1-carboxamide], the pIC50 in assay [1] (setting [7]) is 6.85. The pEC50 in assay [2] (setting [6]) is 7.77.
Consider `CCn1nc(C(=O)NCc2ccc(NC(=O)N(C)C)cc2)c2c1C[C@@H](C)N(c1ccc(C(=O)N(C)C)cn1)C2` (single isomer, unassigned) [Example 113], for which the pIC50 in assay [1] (setting [3]) was 6.79. Also, the pEC50 in assay [2] (setting [4]) is 7.77.
For `CC(C)n1nc(C(=O)NCc2ccc(NC(=O)N3CCCC3CO)cc2)c2c1CCN(c1ccc(C(=O)N(C)C)cn1)C2` (racemic) [Example 174, rac-(R)-5-(5-(dimethylcarbamoyl)pyridin-2-yl)-N-(4-(2-(hydroxymethyl)pyrrolidine-1-carboxamido)benzyl)-1-isopropyl-4,5,6,7-tetrahydro-1H-pyrazolo[4,3-c]pyridine-3-carboxamide] the same measures were 6.67 and 7.40.
With `CCn1nc(C(=O)NCc2ccc(NC(=O)N(C)C)cn2)c2c1[C@@H](C)CN(c1ccc(C(=O)N(C)C)cn1)C2` [Example 302, (S)-5-(5-(dimethylcarbamoyl)pyridin-2-yl)-N-((5-(3,3-dimethylureido)pyridin-2-yl)methyl)-1-ethyl-7-methyl-4,5,6,7-tetrahydro-1H-pyrazolo[4,3-c]pyridine-3-carboxamide], in assay [1] (setting [5]), the pIC50 is 8.05. Moreover, the pEC50 in assay [2] (setting [6]) was 8.22.
As to `CC(C1CC1)n1nc(C(=O)NCc2ccc(NC(=O)N(C)C)cc2)c2c1CCN(c1ccc(C(=O)N(C)C)cn1)C2` (single isomer, unassigned) [Example 87, rel-(R or S)-1-(1-cyclopropylethyl)-5-(5-(dimethylcarbamoyl)pyridin-2-yl)-N-(4-(3,3-dimethylureido)benzyl)-4,5,6,7-tetrahydro-1H-pyrazolo[4,3-c]pyridine-3-carboxamide], in assay [1] (setting [3]), the pIC50 is 6.93. The pEC50 in assay [2] (setting [4]) is 7.82.
For the compound `CCn1nc(C(=O)NCc2ccc(NC(=O)N(C)C)cc2)c2c1C(C(F)(F)F)CN(c1ncc(C(=O)N(C)C)cn1)C2` (racemic) [Example 460, rac-(R)-5-(5-(dimethylcarbamoyl)pyrimidin-2-yl)-N-(4-(3,3-dimethylureido)benzyl)-1-ethyl-7-(trifluoromethyl)-4,5,6,7-tetrahydro-1H-pyrazolo[4,3-c]pyridine-3-carboxamide], the pIC50 in assay [1] (setting [5]) was 8.15. Besides, the negative logarithm of the EC50 (pEC50) in assay [2] (setting [6]) is 9.52.
For `COc1ccc2c(n1)CCN(C(=O)c1ccc(N3CCc4c(c(C(=O)NCc5ccc(NC(=O)N(C)C)cc5)nn4C(C)C)C3)nc1)C2` [Example 384, N-(4-(3,3-dimethylureido)benzyl)-1-isopropyl-5-(5-(2-methoxy-5,6,7,8-tetrahydro-1,6-naphthyridine-6-carbonyl)pyridin-2-yl)-4,5,6,7-tetrahydro-1H-pyrazolo[4,3-c]pyridine-3-carboxamide] the same measures were 5.97 and 7.82.
In assay [1] (setting [3]), `CN(C)C(=O)Nc1ccc(CNC(=O)c2nc(C3CC3)n3c2CN(c2ccc(C(=O)N(C)C)cn2)CC3)cc1` [Example 13, 3-cyclopropyl-7-(5-(dimethylcarbamoyl)pyridin-2-yl)-N-(4-(3,3-dimethylureido)benzyl)-5,6,7,8-tetrahydroimidazo[1,5-a]pyrazine-1-carboxamide] had a pIC50 of 7.08. For the same compound, the pEC50 in assay [2] (setting [4]) was 7.77.
Turning to `CC(C)n1nc(C(=O)NCc2ccc(NC(=O)N(C)C)cc2)c2c1CCN(c1ccc(C(=O)N(C)C)cn1)[C@H]2C` (single isomer, unassigned) [Example 507], the pIC50 in assay [1] (setting [5]) is 5.78. The pEC50 in assay [2] (setting [6]) is 6.87.
The compound `CN(C)C(=O)Nc1ccc(CNC(=O)c2nn(C3COC3)c3c2CN(c2ccc(C(=O)N(C)C)cn2)CC3)cc1` [Example 94, 5-(5-(dimethylcarbamoyl)pyridin-2-yl)-N-(4-(3,3-dimethylureido)benzyl)-1-(oxetan-3-yl)-4,5,6,7-tetrahydro-1H-pyrazolo[4,3-c]pyridine-3-carboxamide] gave a pIC50 in assay [1] (setting [3]) of 7.05. Also, in assay [2] (setting [4]), the pEC50 is 7.31.
As to `Cc1ccnn1-c1ccc(N2CCc3c(c(C(=O)NCc4ccc(NC(=O)N(C)C)cc4)nn3C(C)C)C2)nc1` [Example 41, N-(4-(3,3-Dimethylureido)benzyl)-1-isopropyl-5-(5-(5-methyl-1H-pyrazol-1-yl)pyridin-2-yl)-4,5,6,7-tetrahydro-1H-pyrazolo[4,3-c]pyridine-3-carboxamide], the pIC50 in assay [1] (setting [3]) was 7.03. Moreover, in assay [2] (setting [4]), the pEC50 was 8.52.
With `CC(C)n1nc(C(=O)NCc2ccc(NC(=O)N(C)C)cc2)c2c1CCN(c1ccc(N3CC[C@H](F)C3=O)cn1)C2` [Example 84, (S)-N-(4-(3,3-dimethylureido)benzyl)-5-(5-(3-fluoro-2-oxopyrrolidin-1-yl)pyridin-2-yl)-1-isopropyl-4,5,6,7-tetrahydro-1H-pyrazolo[4,3-c]pyridine-3-carboxamide], the pIC50 in assay [1] (setting [3]) is 7.25. Moreover, the pEC50 in assay [2] (setting [4]) was 8.70.
With `CC(CC#N)n1nc(C(=O)NCc2ccc(NC(=O)N(C)C)cc2)c2c1CCN(c1ccc(C(=O)N(C)C)cn1)C2` (single isomer, unassigned) [Example 348, rel-(R or S)-1-(1-cyanopropan-2-yl)-5-(5-(dimethylcarbamoyl)pyridin-2-yl)-N-(4-(3,3-dimethylureido)benzyl)-4,5,6,7-tetrahydro-1H-pyrazolo[4,3-c]pyridine-3-carboxamide], the pIC50 in assay [1] (setting [7]) was 7.44. Further, the pEC50 in assay [2] (setting [6]) was 7.37.
For `CC(C)n1nc(C(=O)NCc2ccc(NC(=O)N(C)C)cc2)c2c1CCN(c1ncc(C(=O)N(C)C)cn1)[C@@H]2C` (single isomer, unassigned) [Example 508], in assay [1] (setting [5]), the pIC50 is 7.70. For the same compound, the pEC50 in assay [2] (setting [6]) is 8.15.
In assay [1] (setting [3]), `CN(C)C(=O)Nc1ccc(CNC(=O)c2nnn3c2CN(c2ccc(C(=O)N(C)C)cn2)CC3)cc1` [Example 24, 5-(5-(dimethylcarbamoyl)pyridin-2-yl)-N-(4-(3,3-dimethylureido)benzyl)-4,5,6,7-tetrahydro-[1,2,3]triazolo[1,5-a]pyrazine-3-carboxamide] had a pIC50 of 6.46. Besides, the pEC50 in assay [2] (setting [4]) was 6.42.

The values above are taken from US20250320213A1, “Nitrogen-Containing Heterocyclic Compounds” (Pfizer Inc., priority 2024, published 2025).
